13 compounds from ChEMBL document CHEMBL1127174, “Inhibition of cartilage breakdown by isothiazolones” (Bioorg Med Chem Lett, 1993) can be followed below.

The species named for the test is Bos taurus. Description: In vitro ability to inhibit cartilage breakdown by using 1L-1beta stimulated bovine nasal cartilage assay. Format: functional.
Regarding `O=C(Nc1ccccc1)c1ccccc1O` [SALICYLANILIDE], the IC50 was > 30 µM.

On to `CNC(=O)C(Cc1ccc(OC)cc1)NC(=O)[C@H](CC(C)C)[C@H](C)C(=O)NO` (single isomer, unassigned), for which it took 3 µM to reach half-maximal inhibition (IC50).

As for `O=c1ccsn1-c1ccccc1`, the 50% inhibitory concentration (IC50) is > 30 µM.

Regarding `COc1ccc2c(c1)c(CC(=O)O)c(C)n2C(=O)c1ccc(Cl)cc1` [INDOMETHACIN], the concentration for half-maximal inhibition (IC50) was > 30 µM.

The compound `O=c1c2ccccc2sn1-c1ccccc1` yielded a 50% inhibitory concentration (IC50) of 3 µM.

As to `O=c1c2ccccc2[se]n1-c1ccccc1` [EBSELEN], 13 µM corresponded to half-maximal inhibition (IC50).

As to `COc1ccc(-n2sc3ncccc3c2=O)cc1`, half-maximal inhibition (IC50) was put at 13.5 µM.

Consider `COc1ccc2cc([C@H](C)C(=O)O)ccc2c1` [NAPROXEN], for which the half-inhibitory concentration (IC50) was > 30 µM.

With `O=c1c2ccccc2sn1-c1ccc(Cl)cc1`, the concentration for half-maximal inhibition (IC50) stood at 3.6 µM.

`O=c1c2cccnc2sn1-c1ccc(Cl)cc1` came in with a concentration for half-maximal inhibition (IC50) of 3.7 µM.

`CN(C)[C@@H]1C(O)=C(C(N)=O)C(=O)[C@@]2(O)C(O)=C3C(=O)c4c(O)cccc4[C@@](C)(O)[C@H]3C[C@@H]12` [TETRACYCLINE]: the IC50 was > 30 µM.

Take `Nc1ccccc1C(=O)Nc1ccccc1`: the concentration for half-maximal inhibition (IC50) was > 30 µM.

Regarding `COc1ccc(-n2sc3ccccc3c2=O)cc1`, the half-inhibitory concentration (IC50) was > 30 µM.
